In patent US7091185B2, “Periodic antimicrobial peptides” (Dow Global Technologies Inc., priority 2003, dated 2006):
Where no end group is shown, it is not given here.

Key:
P. aeruginosa ATCC 10145 = conditions: ATCC 10145
Experimental: (§1) The bacteria tested were P. aeruginosa American Type Culture Collection Number (ATCC) 10145, E. coli ATCC 2592, and S. aureus (methicillin reseistant) ATTC 33591.
(§2) All experiments were compared to bacterial growth under optimal growth conditions (37° C., pH 7.0, absence of additional salt, growth media—referred to as standard growth conditions). In each plate, no growth control (media alone), positive growth control (bacteria with no test sample), positive antimicrobial controls (agents with known antimicrobial activity) and test compounds were tested.
(§3) The plates were incubated overnight, and the relative percent growth determined by optical density at 620 nm (OD620) using a […] […] PLUS™. […] All samples were tested in duplicate and each assay was repeated at least twice. […] IC50 and MIC are reported in μg/ml.

P. aeruginosa ATCC 15442 = assay: HMARQ biocidal kill activity; format: cell-based; conditions: P. aeruginosa ATCC 15442 (gram−)
Experimental: (§4) Biocide efficacy protocols were improved by reducing sample size, organizing the test material into an array format, implementing most probable number (MPN) quantitation and using multi-channel liquid handling equipment. We call the new method “high-throughput microanalysis and rapid quantitation” or “HMARQ.” HMARQ is directly applicable to current industrial efficacy tests such as multi-cycle preservation challenge or time course disinfection tests.
(§5) HMARQ is performed in a high throughput plate, such as 96-well microtiter plates. Typical sample volumes have been reduced down to 200 to 300 μL, but can be reduced further if desired. In these samples, no more than 10% of the total volume will be composed of the biocide and organism solution, and all non-matrix additions are normalized for all samples.
(§6) The sample matrix is first inoculated with the desired concentration of microorganisms. Inoculated sample matrix is then added to the 96-well assay block containing the biocide(s) under study. Each sample block contains biocide treated samples and untreated control samples (lacking biocide). Once the samples are prepared, the entire block of samples is mixed by vortexing until each sample is homogenous. In general, the study starts once mixing is complete, and samples are removed as required for the analysis. When Kill Time testing (rate of biocide activity) is performed, the microorganisms are added after biocide addition to the samples, allowing for rapid mixing and analysis.
(§7) Bacterial concentration (CFU/mL) is determined using the most probable number method (MPN). The contaminated solution is serially diluted until the “no growth” endpoint is reached. The endpoint represents the MPN and is expressed in units of the bacterial concentration. A serial 1:10 dilution will yield a bacterial concentration resolution of 1 log and the log reduction is determined by comparing the concentration of organisms in a treated sample to the concentration of organisms in untreated samples. For example, if a sample requires four 1:10 dilutions before bacterial growth is lost then the MPN for bacterial concentration in the sample is less than or equal to 1×10^4 CFU/mL (1E4). […] This method of enumeration is generally applicable to all non-filamentous microorganisms.
(§8) Media included Tryptic Soy Broth (TSB) for bacteria and Sabouraud Dextrose Broth (SDB) for fungi. These are available commercially and prepared according to the manufacturers instructions. Indicator medium was TSB/R for bacteria and SDB/R for fungi. These were made by addition of 50 μM filter sterilized Resazurin to the sterilized and cooled medium. Tryptic Soy agar plates (TSA) and SDA slants were used to provide inoculant for bacterial and fungal cultures. The indicator dye appeared pink or white when bacterial growth was present.
(§9) Using the HMARQ test described above, periodic peptides were generated and tested for Kill Activity. In this experiment, a broader range of peptidezs were tested for activity. Units are expressed as ppm (μg/mL) needed for 3.5 log kill at 15 min or 24 hour and the results are shown below.

Staph. aureus ATCC 6538 = assay: HMARQ biocidal kill activity; format: cell-based; conditions: Staph. aureus ATCC 6538 (gram+)
Experimental: as §4, §5, §6, §7, §8, §9

E. coli ATCC 2592 = conditions: ATCC 2592
Experimental: as §1, §2, §3

[1] = system: S. aureus (methicillin resistant) ATCC 33591; conditions: ATCC 33591
Experimental: as §1, §2, §3

C. albicans 10231 = format: cell-based; conditions: 10231
Experimental: (§10) The MIC and IC50 values were determined by a broth microdilution method according to guidelines of the National Committee for Clinical Laboratory Standard as follows: In 96-well tissue culture plates, a fixed volume of bacterial suspension in 2× broth (as defined below) was added to the mixtures or individual compounds dispensed at concentrations varying from 1,000 to 1 μg/ml derived from serial two-fold dilutions in sterile water. The bacteria tested were P. aeruginosa American Type Culture Collection Number (ATCC) 10145, E. coli ATCC 2592, and S. aureus (methicillin reseistant) ATTC 33591.
(§11) The plates were incubated overnight, and the relative percent growth determined by optical density at 620 nm (OD620) using a TITERTEK MULTISKAN PLUS™. […] IC50 values were calculated using a sigmoidal curve fitting software program (GRAPHPAD,™ ISI Software,™ San Diego, Calif.). All samples were tested in duplicate and each assay was repeated at least twice. In the following table, KFAK is the repeat unit and multimers of KFAK were tested. IC50 and MIC are reported in μg/ml.
(§12) Because the antibacterial activity of the periodic peptides was so promising, further experiments were performed to determine if the periodic peptides also had antifungal activity. The experimental design was similar to that above, with accommodation made for fungal growth requirements, including the use of Sabouraud Dextrose Broth (SDB) and Sabouraud Dextrose Agar (SDA) slants.

Cr. Neoformans 32045 = format: cell-based
Experimental: as §10, §11, §12

Red blood cell toxicity = format: cell-based; conditions: red blood cells (RBC); RBCs; concentration required for 50% toxicity; read-out: TX50
Red blood cells (RBC) = assay: Red blood cell toxicity; format: cell-based

H-KFAKKFAKKAAKKAAK-OH [PBF16b, KFAKKFAKKAAKKAAK, reference compound]
IC50 (P. aeruginosa ATCC 10145): >250 µg/mL
MIC (P. aeruginosa ATCC 10145): >250 µg/mL

KTK KTK KTK KTK KTK KTK KTK (KTKKTKKTKKTKKTKKTKKTK; Periodic Peptide) [KTK(7)]
ppm needed for 3.5 log kill at 15 min (P. aeruginosa ATCC 15442): 31 ppm
ppm needed for 3.5 log kill at 24 hr (P. aeruginosa ATCC 15442): 31 ppm
ppm needed for 3.5 log kill at 15 min (Staph. aureus ATCC 6538): 250 ppm
ppm needed for 3.5 log kill at 24 hr (Staph. aureus ATCC 6538): 8 ppm

LK LK LK LK LK LK LK LK LK LK LK LK LK LK LK LK LK LK (LKLKLKLKLKLKLKLKLKLKLKLKLKLKLKLKLKLK; Periodic Peptide) [LK(18)]
ppm needed for 3.5 log kill at 15 min (P. aeruginosa ATCC 15442): 16 ppm
ppm needed for 3.5 log kill at 24 hr (P. aeruginosa ATCC 15442): 31 ppm
ppm needed for 3.5 log kill at 15 min (Staph. aureus ATCC 6538): 8 ppm
ppm needed for 3.5 log kill at 24 hr (Staph. aureus ATCC 6538): 16 ppm

LK LK LK LK LK (LKLKLKLKLK; Periodic Peptide) [LK(5)]
ppm needed for 3.5 log kill at 15 min (P. aeruginosa ATCC 15442): 62 ppm
ppm needed for 3.5 log kill at 24 hr (P. aeruginosa ATCC 15442): 62 ppm
ppm needed for 3.5 log kill at 15 min (Staph. aureus ATCC 6538): >500 ppm
ppm needed for 3.5 log kill at 24 hr (Staph. aureus ATCC 6538): 31 ppm

KFK KFK KFK KFK KFK KFK KFK KFK KFK KFK KFK KFK KFK KFK KFK KFK (KFKKFKKFKKFKKFKKFKKFKKFKKFKKFKKFKKFKKFKKFKKFKKFK; Periodic Peptide) [KFK(16)]
ppm needed for 3.5 log kill at 15 min (P. aeruginosa ATCC 15442): 16 ppm
ppm needed for 3.5 log kill at 24 hr (P. aeruginosa ATCC 15442): 31 ppm
ppm needed for 3.5 log kill at 15 min (Staph. aureus ATCC 6538): >500 ppm
ppm needed for 3.5 log kill at 24 hr (Staph. aureus ATCC 6538): 16 ppm

KGK KGK KGK KGK KGK KGK KGK KGK KGK KGK KGK (KGKKGKKGKKGKKGKKGKKGKKGKKGKKGKKGK; Periodic Peptide) [KGK(11)]
ppm needed for 3.5 log kill at 15 min (P. aeruginosa ATCC 15442): 8 ppm
ppm needed for 3.5 log kill at 24 hr (P. aeruginosa ATCC 15442): 8 ppm
ppm needed for 3.5 log kill at 15 min (Staph. aureus ATCC 6538): >500 ppm
ppm needed for 3.5 log kill at 24 hr (Staph. aureus ATCC 6538): 8 ppm

FKLRAKIKVRLRAKIKL [D4E1, FKLRAKIKVRLRAKIKL, reference compound]
IC50 (E. coli ATCC 2592): 3.3 µg/mL
MIC (E. coli ATCC 2592): 8 to 16 µg/mL
IC50 (P. aeruginosa ATCC 10145): 6.2 µg/mL
MIC (P. aeruginosa ATCC 10145): 8 to 16 µg/mL
IC50 [1]: 6.3 µg/mL
MIC [1]: 32 to 62 µg/mL
IC50 (C. albicans 10231): 70.6 µg/mL
MIC (C. albicans 10231): 80 to 125 µg/mL
IC50 (Cr. Neoformans 32045): 1.8 µg/mL
MIC (Cr. Neoformans 32045): 8 to 16 µg/mL
HC50 at 24 h (Red blood cell toxicity): 134 µg/mL
% kill at 250 μg/ml (Red blood cells (RBC)): 77.2%

KFK KFK KFK KFK KFK KFK KFK KFK KFK KFK KFK KFK (KFKKFKKFKKFKKFKKFKKFKKFKKFKKFKKFKKFK; Periodic Peptide) [KFK(12)]
ppm needed for 3.5 log kill at 15 min (P. aeruginosa ATCC 15442): 4 ppm
ppm needed for 3.5 log kill at 24 hr (P. aeruginosa ATCC 15442): 8 ppm
ppm needed for 3.5 log kill at 15 min (Staph. aureus ATCC 6538): >500 ppm
ppm needed for 3.5 log kill at 24 hr (Staph. aureus ATCC 6538): 250 ppm

LK LK LK LK LK LK LK LK LK LK LK LK LK LK LK LK LK LK LK LK LK LK LK LK (LKLKLKLKLKLKLKLKLKLKLKLKLKLKLKLKLKLKLKLKLKLKLKLK; Periodic Peptide) [LK(24)]
ppm needed for 3.5 log kill at 15 min (P. aeruginosa ATCC 15442): 16 ppm
ppm needed for 3.5 log kill at 24 hr (P. aeruginosa ATCC 15442): 63 ppm
ppm needed for 3.5 log kill at 15 min (Staph. aureus ATCC 6538): >500 ppm
ppm needed for 3.5 log kill at 24 hr (Staph. aureus ATCC 6538): >500 ppm

H-KFAKKFAKKFAKKAAK-OH [PBF16a, KFAKKFAKKFAKKAAK, reference compound]
IC50 (P. aeruginosa ATCC 10145): >250 µg/mL
MIC (P. aeruginosa ATCC 10145): >250 µg/mL

KFAKKAAKKFAKKAAK [PBF16c, KFAKKAAKKFAKKAAK, reference compound]
IC50 (P. aeruginosa ATCC 10145): >250 µg/mL
MIC (P. aeruginosa ATCC 10145): >250 µg/mL

KGK KGK KGK KGK KGK KGK KGK KGK KGK KGK KGK KGK KGK KGK KGK (KGKKGKKGKKGKKGKKGKKGKKGKKGKKGKKGKKGKKGKKGKKGK; Periodic Peptide) [KGK(15)]
ppm needed for 3.5 log kill at 15 min (P. aeruginosa ATCC 15442): 4 ppm
ppm needed for 3.5 log kill at 24 hr (P. aeruginosa ATCC 15442): 16 ppm
ppm needed for 3.5 log kill at 15 min (Staph. aureus ATCC 6538): 125 ppm
ppm needed for 3.5 log kill at 24 hr (Staph. aureus ATCC 6538): 62 ppm

FKA FKA FKA FKA FKA FKA FKA FKA FKA FKA FKA FKA FKA FKA FKA FKA FKA (FKAFKAFKAFKAFKAFKAFKAFKAFKAFKAFKAFKAFKAFKAFKAFKAFKA; Periodic Peptide) [FKA(17)]
ppm needed for 3.5 log kill at 15 min (P. aeruginosa ATCC 15442): 16 ppm
ppm needed for 3.5 log kill at 24 hr (P. aeruginosa ATCC 15442): 16 ppm
ppm needed for 3.5 log kill at 15 min (Staph. aureus ATCC 6538): 4 ppm
ppm needed for 3.5 log kill at 24 hr (Staph. aureus ATCC 6538): 8 ppm

B1: KFAK KFAK KFAK KFAK KFAK KFAK KFAK KFAK KFAK KFAK KFAK KFAK KFAK KFAK KFAK KFAK KFAK (peptide)
chain: KFAKKFAKKFAKKFAKKFAKKFAKKFAKKFAKKFAKKFAKKFAKKFAKKFAKKFAKKFAKKFAKKFAK
modifications: Periodic Peptide
ppm needed for 3.5 log kill at 15 min (P. aeruginosa ATCC 15442): 16 ppm
ppm needed for 3.5 log kill at 24 hr (P. aeruginosa ATCC 15442): 250 ppm
ppm needed for 3.5 log kill at 15 min (Staph. aureus ATCC 6538): 250 ppm
ppm needed for 3.5 log kill at 24 hr (Staph. aureus ATCC 6538): 500 ppm

B2: KFK KFK KFK KFK KFK KFK KFK KFK KFK KFK KFK KFK KFK KFK KFK KFK KFK KFK KFK KFK KFK (peptide)
chain: KFKKFKKFKKFKKFKKFKKFKKFKKFKKFKKFKKFKKFKKFKKFKKFKKFKKFKKFKKFKKFK
modifications: Periodic Peptide
ppm needed for 3.5 log kill at 15 min (P. aeruginosa ATCC 15442): 31 ppm
ppm needed for 3.5 log kill at 24 hr (P. aeruginosa ATCC 15442): 63 ppm
ppm needed for 3.5 log kill at 15 min (Staph. aureus ATCC 6538): >500 ppm
ppm needed for 3.5 log kill at 24 hr (Staph. aureus ATCC 6538): 250 ppm

B3: FKA FKA FKA FKA FKA FKA FKA FKA FKA FKA FKA FKA FKA FKA FKA FKA FKA FKA FKA FKA FKA (peptide)
chain: FKAFKAFKAFKAFKAFKAFKAFKAFKAFKAFKAFKAFKAFKAFKAFKAFKAFKAFKAFKAFKA
modifications: Periodic Peptide
ppm needed for 3.5 log kill at 15 min (P. aeruginosa ATCC 15442): 8 ppm
ppm needed for 3.5 log kill at 24 hr (P. aeruginosa ATCC 15442): 16 ppm
ppm needed for 3.5 log kill at 15 min (Staph. aureus ATCC 6538): 4 ppm
ppm needed for 3.5 log kill at 24 hr (Staph. aureus ATCC 6538): 125 ppm
